By pKi is commonly meant the negative decadic logarithm of the Ki, by convention in mol/L.

Ki data for four compounds are collected here from patent US6867200B1, “(Hetero)aryl-bicyclic heteroaryl derivatives, their preparation and their use as protease inhibitors” (Axys Pharmaceuticals, Inc., priority 1998, dated 2005).

pKi: −log10 of the molar value.

For one test, the target named is T1, human Factor Xa (Homo sapiens, UniProt P00742).
T1 construct: purified human Factor Xa; purchased Haematologic Technologies, VT, USA
T1 sequence (P00742 235-488 limits assumed): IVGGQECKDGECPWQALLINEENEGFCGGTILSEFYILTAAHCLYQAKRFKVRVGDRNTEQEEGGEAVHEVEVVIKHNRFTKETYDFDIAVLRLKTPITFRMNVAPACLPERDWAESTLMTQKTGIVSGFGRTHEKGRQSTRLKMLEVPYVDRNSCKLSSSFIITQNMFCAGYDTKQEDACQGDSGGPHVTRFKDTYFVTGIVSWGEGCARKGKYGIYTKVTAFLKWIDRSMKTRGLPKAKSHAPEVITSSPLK
T1 sequence (P00742 41-179 partner limits assumed): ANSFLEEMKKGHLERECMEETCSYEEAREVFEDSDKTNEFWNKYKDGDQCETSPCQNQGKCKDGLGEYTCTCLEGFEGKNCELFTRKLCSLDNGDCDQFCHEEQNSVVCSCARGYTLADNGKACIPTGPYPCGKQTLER
Put plainly: Factor Xa inhibition, chromogenic substrate hydrolysis, Ki app. The test is classed as biochemical. As to conditions: read-out: FXa Ki.

A further test has as its target T2, human Urokinase (Homo sapiens, UniProt P00749).
T2 construct: purchased American Diagnostica, CT, USA
Put plainly: Urokinase (uPA) inhibition, chromogenic substrate hydrolysis, Ki app. It counts as biochemical.

Experimental for human Factor Xa: (§1) The effectiveness of compounds of the present invention as inhibitors of Urokinase and Factor Xa is determined using synthetic substrates and purified Urokinase and purified human Factor Xa respectively.
(§2) The rates of hydrolysis by the chromagenic substrates were measured both in the absence and presence of compounds of the present invention. […] The results of this assay are expressed as the inhibitory constant, Ki app.
Factor Xa determinations were made in 50 mM Tris buffer, pH 7.5, containing 1M NaCl, 5 mM CaCl2, 0.05% Tween-20, and 1.5 mM EDTA. […] The enzyme assay routinely yielded linear progression curves under these conditions. Initial velocity measurements calculated from the progress curves by a kinetic analysis program (Batch Ki; Peter Kuzmic, BioKin, Ltd., Madison, Wis.) were used to determine Ki app.
Experimental for human Urokinase: as §1, §2
Urokinase inhibition determinations were made in 50 mM Tris (pH7.5), 150 mM NaCl, 0.05% Tween-20, 0.002% antifoam, and 1 mM EDTA. human Urokinase (from American Diagnostica, CT, USA). […] The enzyme assay routinely yielded linear progression curves under these conditions. Initial velocity measurements calculated from the progress curves by a kinetic analysis program (Batch Ki; Peter Kuzmic, BioKin, Ltd., Madison, Wis.) were used to determine Ki app.

`N=C(N)c1ccc2nc(-c3ccc(OCC(=O)NCc4cccc5ccccc45)cc3O)[nH]c2c1` [compound 258, 2-[4-(6-Carbamimidoyl-1H-benzoimidazol-2-yl)-3-hydroxy-phenoxy]-N-naphthalen-1-ylmethyl-acetamide]: on human Factor Xa, the negative logarithm of the Ki (pKi) is 6.34.

For `Cc1cc(-c2ccccc2)c(O)c(-c2cc3cc(C(=N)N)ccc3[nH]2)c1` [compound 820], the pKi is 6.53 on human Factor Xa and 7.19 on human Urokinase.

As for `N=C(N)c1cc2cc(-c3cc(CC(=O)N4CCS(=O)(=O)CC4)cc(-c4ccccc4)c3O)[nH]c2cc1Cl` [compound 860], the negative logarithm of the Ki (pKi) was 5.27 on human Factor Xa and 8.40 on human Urokinase.

As for `N=C(N)c1ccc2[nH]c(-c3cc(CCC(=O)O)cc(Br)c3O)c(Cc3ccccc3)c2c1` [Ex. 802, 3-[3-(3-Benzyl-5-carbamimidoyl-1H-indol-2-yl)-5-bromo-4-hydroxy-phenyl]-propionic acid], the pKi is 9.21 on human Factor Xa and 6.59 at human Urokinase.
